Earlier results in PMC8845813 (Angewandte Chemie (International ed. in English), 2021).

Tested on: LC3A and LC3B LIR-interaction interface

SMILES: CO[C@@H]1[C@@H](OC(N)=O)[C@@H](O)[C@H](Oc2ccc3c(O)c(NC(=O)c4ccc(O)c(CC=C(C)C)c4)c(=O)oc3c2C)OC1(C)C [novobiocin]
- potency at LC3A and LC3B LIR-interaction interface: weak potency
